Experiments:
[1] = tested on: progenitors (CD34+CD38+Lin−) from CML BC-derived tumors; experiment: CML BC progenitor engraftment in transplanted mice, FACS of human CD45+ cells in liver; format: in vivo; conditions: oral gavage daily for 3 weeks, 120 μg/kg, vs vehicle, FACS of livers, n=4 vs n=5, p=0.03
Description: Briefly, immunocompromised neonatal mice were transplanted intrahepatically with luciferase GFP transduced myeloid sarcomas from mice transplanted with BC CSC, the methodology described in Geron et al, Cancer Cell 2008; 13(4):321-30. […] Engraftment levels were determined by FACS analysis of human CD45^+ expression in mouse livers on […] post-transplant.
FIG. 3C. Left: qPCR analysis of Mcl-1 long (blue) and short (red) transcripts from progenitors (CD34^+CD38^+Lin^−) of several normal and CML samples. […] FIG. 4 below. […] FIG. 4A. […] Representative FACS data of CD45^+ cells in mouse livers transplanted with progenitors (CD34^+CD38^+Lin^−) from CML BC-derived tumors. […] Mouse livers were harvested at 13 weeks post-transplant, stained, and analyzed for human CD45^+ cells using FACS. • FIG. 4C.

[2] = tested on: Mcl-1 long and short isoform; experiment: qPCR of Mcl-1 long and short isoforms in tumor cells harvested from treated mice; format: in vivo; conditions: tumor cells from treated mice (n=3) vs vehicle (n=2)
Source text: For gene expression analysis, cDNA was made from RNA isolated from sorted progenitor populations (CD34^+CD38^+Lin^−). Isoform specific RT-PCR was used to determine expression levels of Bcl-2, Bcl-X, and Mcl-1 isoforms. Expression was confirmed using qPCR.

In the case of `Cc1cc2c(C(C)C)c(O)c(O)cc2c(O)c1-c1c(C)cc2c(C(C)C)c(O)c(O)cc2c1O` [apogossypol], the “number/frequency of human CD45+ cells engrafted in the mouse liver (tumor cell engraftment)” value [1] is reported as “statistically significant (p=0.03) decrease in tumor cell engraftment”, the “number/frequency of human CD45+ cells engrafted in the mouse liver (tumor cell engraftment)” value ([1]; listed as Apogossypol) is reported as “statistically significant decrease” and the “Mcl-1 short isoform expression” value [2] is reported as “higher Mcl-1 short isoform expression”.
